# In patent US20060009433A1, “Neuroprotective spirostenol pharmaceutical compositions” (priority 2003, published 2006):
# Entries after “also recorded” stand apart in the source; their conditions may differ.
# Tests used:
# [1] = test system: MA-10 mouse tumor Leydig cells; experiment: Steroid (progesterone) formation in MA-10 Leydig cells; type: in vitro ADME; conditions: MA-10 cells, 2 hours
# Procedure: (§1) PC12 cells (rat pheochromocytoma neurons) from ATCC (Manassas, Va.) were cultured at 37° C. and 5% CO2 in RPMI 1640 medium devoid of glutamine and supplemented with 10% fetal bovine serum and 5% horse serum. Yao Z, Drieu K and Papadopoulos V., The Gingko biloba extract EGb 761 rescues PC12 neuronal cells from β-amyloid-induced cell death by inhibiting the formation of (3-amyloid-derived diffusible neurotoxic ligands, Brain Res, 889, 181-190 (2001). Cells were seeded in 96-well plates (8×10^4 cells/well). After an overnight period of incubation, increasing concentrations of aggregated Aβ (0.1, 1 and 10 μM) were added to the cells in the presence or absence of the indicated concentrations of the SP compounds to be tested. After 72-hours incubation time various parameters, markers of cell viability, were determined. Mouse MA-10 tumor Leydig cells were maintained at 37° C. in DMEM/Ham's F12 (Biofluids, Rockville, Md.) medium supplemented with 5% heat-inactivated fetal calf serum and 2.5% horse serum in 5% CO2. Cells were plated on 96-well plates at the density of 2.5×10^4 cells/well for overnight. […]
# Progesterone production by MA-10 cells was measured by radioimmunoassay using anti-progesterone antisera (ICN, Costa Mesa, Calif.), following the conditions recommended by the manufacturer. […] Radioimmunoassay data was analyzed using the MultiCalc software (EG&G Wallac, Gaithersburg, Md.). […]
# PC12 cells [2] = experiment: Cellular ATP levels (ATPLite-M) in Aβ-treated PC12 cells; type: cell-based, rat; conditions: 0.1 and 1.0 μM Aβ
# Procedure: (§2) PC12 cells (rat pheochromocytoma neurons) from ATCC (Manassas, Va.) were cultured at 37° C. and 5% CO2 in RPMI 1640 medium devoid of glutamine and supplemented with 10% fetal bovine serum and 5% horse serum. Yao Z, Drieu K and Papadopoulos V., The Gingko biloba extract EGb 761 rescues PC12 neuronal cells from β-amyloid-induced cell death by inhibiting the formation of (3-amyloid-derived diffusible neurotoxic ligands, Brain Res, 889, 181-190 (2001). Cells were seeded in 96-well plates (8×10^4 cells/well). After an overnight period of incubation, increasing concentrations of aggregated Aβ (0.1, 1 and 10 μM) were added to the cells in the presence or absence of the indicated concentrations of the SP compounds to be tested. After 72-hours incubation time various parameters, markers of cell viability, were determined. Mouse MA-10 tumor Leydig cells were maintained at 37° C. in DMEM/Ham's F12 (Biofluids, Rockville, Md.) medium supplemented with 5% heat-inactivated fetal calf serum and 2.5% horse serum in 5% CO2. Cells were plated on 96-well plates at the density of 2.5×10^4 cells/well for overnight. The cells were stimulated with the indicated concentrations of the various SP compounds in 0.2 ml/well serum-free medium for 2 hours. The culture medium was collected and tested for progesterone production by radioimmunoassay.
# Cellular ATP concentrations were measured using the ATPLite-M™ luminescence assay (Packard BioSciences Co.). For this assay, cells were cultured on black 96-well ViewPlate™ and the ATP concentrations were measured on a TopCount NXT™ counter (Packard BioSciences Co.) following the recommendations of the manufacturer.
# Aβ [3] = target: T1, Aβ (Homo sapiens, UniProt P05067); experiment: Immunoblot analysis of Aβ polymerization and ADDL formation; type: biochemical; conditions: SP233 1, 10, 100 μM
# T1 construct: Aβ1-42 peptide was purchased from American Peptide Co; purchased American Peptide Co. (Sunnyvale, Calif.)
# T1 sequence (P05067 672-713): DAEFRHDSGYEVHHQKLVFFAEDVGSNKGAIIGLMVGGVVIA
# Procedure: Increasing concentration of Aβ (0.1, 1 and 10 μM) were incubated in PC12 culture medium for 24 hours and 72 hours at 37° C. under 5% CO2 with or without increasing concentrations of SP233 (1, 10 and 100 μM). At the end of the incubation time, samples were separated by 4-20% Tris-Glycine gel electrophoresis (Invitrogen) under native conditions at 125V for 2 hours and transferred to nitrocellulose membrane (Hybond™ ECL™, Amersham Pharmacia Biotech) at […] for 30 minutes. Non-specific adsorption of the antibodies was blocked by incubating the nitrocellulose in 5% milk. The blots were treated for immunodetection of Aβ species using a polyclonal antibody to Aβ that recognizes a 30 amino acid peptide of the Aβ protein (Zymed Laboratories, San Francisco, Calif.). Membranes were incubated in primary antibody for 1 hour at room temperature at a dilution of 1:2,000. Then, membranes were incubated in the secondary antibody at a dilution of 1:1,000 for 1.5 hours at room temperature. The blots were visualized using the ECL™ Western Blotting Analysis System (Amersham Biosciences). Image-densitometric analysis was performed using the OptiQuant software (Packard BioScience). This method allows for the separation, visualization and identification of Aβ complexes, polymers and ADDLs.
# Aβ [4] = target: T1, Aβ; experiment: CPBBA displacement of radiolabeled 22R-hydroxycholesterol from Aβ (Example II); type: binding; conditions: 100 μM unlabeled compound; 50 μM Aβ
# Procedure: At the end of the incubation time, samples were separated by 1.5% agarose (Type I-B) gel electrophoresis under native conditions and transferred to nitrocellulose membrane (Schleicher&Schuell, Keene, N.H.) in 10×SSC buffer. The membrane was exposed to tritium-sensitive screen and analyzed by phosphoimaging using the Cyclone Storage phosphor system (Packard BioScience). Image-densitometric analysis was performed using the OptiQuant software (Packard BioScience). […] Low molecular weight unincorporated 22R-hydroxycholesterol and derivatives are separated and eliminated during electrophoresis.
# PC12 cells [5] = experiment: Trypan blue uptake, Aβ-treated PC12 cells (Example II); type: cell-based, rat
# Procedure: as §1
# Cell viability was measured using the trypan blue exclusion method as we previously described. […] After washing three times with PBS, 0.1 N NaOH was added to the cells and trypan blue was quantified using the Victor quantitative detection spectrophotometer at 450 nm.
# PC12 cells [6] = experiment: Membrane potential (CytoLite luminescence) in Aβ-treated PC12 cells; type: cell-based, rat; conditions: 10 μM Aβ
# Procedure: as §2
# Cells viability was also assessed using the luminescence-based kit CytoLite™ (Packard BioScience Co.) according to the recommendations of the manufacturer. Briefly, cells were cultured and treated in 96-well plates and after 72-hours incubation time, 25 μl of Activator solution was added to the cells followed by 150 μl of Amplifier solution. Luminescence was measured on a TopCount NXT™ counter (Packard BioSciences Co.) following a 5 minute precount delay.
# [7] = test system: PC12 cells (rat pheochromocytoma neurons); experiment: MTT cytotoxicity assay, Aβ-induced neurotoxicity in PC12 cells (Example II); type: cell-based
# Procedure: as §2
# The cellular toxicity of Aβ was assessed using the 3-(4,5-dimethylthiazol-2-yl)-2,5-diphenyl tetrazolium bromide (MTT) assay (Trevigen, Gaithersburg, Md.). Briefly, 10 μl of the MTT solution were added to the cells cultured in 100 μl medium. After an incubation period of 4 hours, 100 μl of detergent were added and cells were incubated overnight at 37° C. Formazan blue formation was quantified at 600 nm and 690 nm using the Victor quantitative detection spectrophotometer (EGG-Wallac, Gaithersburg, Md.) and the results expressed as (DO600-DO690). […] Liu Y and Schubert D, Steroid hormones block amyloid fibril-induced 3-(4,5-dimethylthiazol-2-yl)-2,5-diphenyltetrazolium bromide (MTT) formazan exocytosis: relationship to neurotoxicity, J. Neurochem., 19, 1639-1662 (1998). For that reason, additional cytotoxicity and cell viability assays were used.
# Yao et al., J. Neurochem., 83, 1110-1119 (2002); and Yao et al., The Gingko biloba extract EGb 761 rescues PC12 neuronal cells from β-amyloid-induced cell death by inhibiting the formation of β-amyloid-derived diffusible neurotoxic ligands, Brain Res., 889, 181-190 (2001). To stay close to the concentrations of Aβ present in AD brain, 0.1-10 μM concentrations of Aβ were used. The compounds tested for their neuroprotective properties were examined at 30 and 50 μM concentrations (FIGS. 9-15).
# [8] = MTT, compounds at 30 and 50 μM, 72 hours
structure (smiles),measurement,setting,value
"CCCCCC(=O)O[C@H]1CC[C@@]2(C)C(=CC[C@H]3[C@@H]4C[C@@H]5O[C@@]6(CC[C@H](C)CO6)[C@@H](C)[C@@H]5[C@@]4(C)CC[C@@H]32)C1 [SP233, (22S,25S)-(20S)-spirost-5-en-3β-yl hexanoate]",metabolism to final steroid products / steroid formation,[1],could not be metabolized to final steroid products; also recorded: unable to induce steroid formation
same,reversal of Aβ-induced decrease in ATP levels,PC12 cells [2],"able to reverse; also recorded: blocked, although in part"
same,amount of Aβ polymeric species,Aβ [3],small dose-dependent increase
same,trimeric and tetrameric ADDLs,"Aβ [3]; 10 μM Aβ, 24 and 72 hours",dose-effect relationship is also observed; also recorded: decreased in a dose-dependent manner
same,amount of Aβ monomeric species,"Aβ [3]; 1 and 10 μM Aβ, 24 and 72 hours",decreases in a dose-dependent manner
same,displacement of radiolabeled 22R-hydroxycholesterol binding to Aβ,Aβ [4],35%
same,dose-dependence of the neuroprotective effect,"PC12 cells [5]; FIG. 15, 0.1, 1.0 and 10.0 μM Aβ",dose-dependent
same,effect on Aβ-induced cell death (trypan blue uptake),"PC12 cells [5]; SP233 at 30 and 50 μM, 0.1, 1 and 10 μM Aβ",inhibited the Aβ-induced cell death
same,"neuroprotective effect against 10 μM Aβ, membrane potential luminescence",PC12 cells [6],replicated by the raise of the signal
same,protection against 0.1 μM Aβ,[7]; 0.1 μM Aβ,75%
same,neuroprotective effect compared with SP222,"[7]; MTT, 0.1 μM Aβ",significantly more robust effect than SP222
same,neuroprotection against 0.1 μM Aβ-induced neurotoxicity,[7]; [8],displayed neuroprotective activity
same,neuroprotection against 1 μM Aβ-induced neurotoxicity,[7]; [8],maintained their neuroprotective properties
same,neuroprotection against 10 μM Aβ-induced neurotoxicity,[7]; [8],kept this property; also recorded: exhibited neuroprotective activity
same,neuroprotection against Aβ-induced neurotoxicity (structure/activity discussion),[7]; PC12 cells,the most potent compound
same,neuroprotection in vitro against Aβ at concentrations as low as,[7]; all assays used,10 µM
